Test results taken from article PMC6304418, “A Novel Compound Targeting Protease Receptor 1 Activators for the Treatment of Glioblastoma” (Frontiers in Neurology, 2018).
Where a SMILES comes first, the peptide text is derived from it. The star is where a group is joined. Tos = Cc1ccc(S(=O)(=O)*)cc1; CH2Cl = ClC*

Key:
[1] = system: CNS-1 glioma in Lewis rats; assay: In-vivo imaging study (MRI) in CNS-1 GBM rat model
Procedure: (§1) Adult Lewis rats (270–335 g, Harlan, Jerusalem, Israel) were housed in a standard conditions and fed a standard diet. Water was available ad libitum. Ambient temperature was set to 22°C to 23°C with day/night light control. The protocols of this study were approved by the Sheba Medical Center Committee on the Use and Care of Animals (permit No: 972/15) according to the ARRIVE Guidelines. Maximum efforts were made in order to minimize suffering and pain. The humane endpoints were the inability to rise or ambulate and a severe weight loss (20% of initial body weight).
(§2) The rats were anesthetized via IM injection of Ketamine-Xylazine (100 mg/kg, 16 mg/kg, respectively). A midline scalp incision was made, and a 1 mm burr hole was drilled (coordinates 1 mm lateral × 3 mm posterior to the Bregma). Tumor implantation was performed using a 30 gauge needle attached to a 25 μl syringe containing 10 μl of CNS-1 pellet 5 × 10^7cells/ml. The rats were positioned into a stereotactic frame in order to inject the cells at the right corpus striatum 5.5 mm deep in the brain tissue. […] The needle was gently pulled out 1 min after the pump was stopped. The burr hole was then sealed with bone wax and the skin was sutured.
MRI was performed using a clinical interventional 1.5T MR system. The rats were anesthetized and Gd-based contrast agent was injected IP (Gd-DOTA, 0.02 mmol/kg, Dotarem, Guerbert). MRI sequences included contrast enhanced T1-weighted MRI for depiction of the tumor, T2-weighted MRI for depiction of edema and gradient-echo MRI for depiction of possible hemorrhages. The first MRI scan was used to rank the tumors into three categories based on the size evaluation in order to form groups with a similar distribution of initial tumor size. Regions of interest (ROIs) were plotted over enhanced T1 and T2 weighted MR images. The volume of the tumors, calculated from the T1-weighted images, was then subtracted from the enhancing volume, calculated from the T2-weighted images, in order to determine the volume of surrounding edema.
The animals were implanted with osmotic pumps attached to brain infusion tube (Alzet, Cupertino, CA, USA). Implantation was performed 5 days after tumor inoculation. […]
Rats were allocated to three groups. […] 7 days following induction of treatment (day 12) a follow-up MRI imaging (2nd) was performed and the size of the tumor and edema surrounding the tumor were analyzed by standard ROI manual techniques as described above. In order to eliminate the effect of initial tumor and edema sizes variance, the tumor and edema sizes increase were calculated by using the ratio of the 2nd MRI scan divided by the 1st MRI scan ([41], [42]).

[2] = system: CNS-1 inoculated Lewis rats; assay: Survival study in CNS-1 GBM rat model; assay type: in vivo
Procedure: as §1, §2
The animals were implanted with osmotic pumps attached to brain infusion tube (Alzet, Cupertino, CA, USA). Implantation was performed 5 days after tumor inoculation. Two different types of osmotic pump were used: in the imaging study the pumps implanted released 1 μl/h for 7 days (model #2001), while in the survival study the pumps released 0.5 μl/h for 14 days (model #2002). The pumps were preloaded with either saline or SIXAC (in indicated concentrations). The pumps were primed in saline bath at 37°C for 24 h as a pre-implantation procedure and the function of each pump was reassured by assessing dripping. The Alzet pump was implanted subcutaneously, a catheter was placed intracranially thus releasing substances directly to the tumor core.
Rats were allocated to three groups. 1. Control group (n = 15) treated with alzet-pumps contain saline. 2. Moderate dose treated group (n = 16) treated with alzet-pump containing SIXAC (2μg/kg/day). 3. High dose treated group (n = 14) treated with alzet-pumps contain SIXAC (20μg/kg/day). Survival was registered daily and the brains were dissected immediately after death determination and were placed in 4% PFA and kept at 4°C. Upon MRI scanning the brains were moved to PBS containing tubes, scanning was performed and ROI were quantified.

## Cc1ccc(S(=O)(=O)N[C@@H](C)C(=O)N[C@H](C(=O)N[C@@H](CC(C)C)C(=O)N[C@@H](CC(=O)O)C(=O)N2CCC[C@H]2C(=O)N[C@@H](CCCNC(=N)N)C(=O)CCl)[C@@H](C)O)cc1 [SIXAC] (Tos-ATLDPR-CH2Cl)
[1]; 2μg/kg/day vs. 0.2μg/kg/day and saline
  tumor enhancement means of ratios, moderate dose vs. low dose and saline (in words): non-significant reduction in tumor enhancement means of ratios
[1]; 2μg/kg/day vs. 0.2μg/kg/day and saline, p < 0.05
  edema means of ratios, moderate dose vs. low dose and saline (in words): Significant reduction in edema means of ratios
[1]; 2μg/kg/day, intracranial Alzet pump, 7 days, day 12/day 5, n = 9, control 8.8 ± 1.9, p < 0.04 (t-test)
  edema volume ratio (2nd/1st MRI, T2): 4.9 ± 1
[1]; 2μg/kg/day, intracranial Alzet pump, 7 days, day 12/day 5, n = 9, control 12.2 ± 2.4, p = 0.16 (t-test)
  tumor volume ratio (2nd/1st MRI, enhancing lesions, T1): 9.8 ± 1.2
[2]; 2μg/kg/day and 20μg/kg/day combined
  survival, combined SIXAC groups relative to controls (in words): robust effect of treatment
[2]; 2μg/kg/day, log-rank test, one tailed p = 0.01
  survival rate vs. saline, moderate dose (in words): significantly prolonged in comparison to the saline treated group
[2]; 20μg/kg/day, intracranial Alzet pump, 14 days, n = 14, control 16 days, log-rank one tailed p < 0.05
  median survival, high dose: 17 days
[2]; 20μg/kg/day, log-rank test, one tailed p < 0.05
  survival rate vs. saline, high dose (in words): less pronounced effect for the high dose group
[2]; saline, 2μg/kg/day, 20μg/kg/day, log-rank test for trend p = 0.030
  survival, trend over three groups (in words): significant trend of prolonged survival
